The text below walks through data of ChEMBL document CHEMBL1287800, “Pyridylmethylthio derivatives as VEGF inhibitors. Part 1” (Bioorg Med Chem Lett, 2010).

For the assay, the system named is HUVEC. Nature of the assay: Inhibition of VEGF-induced HUVEC proliferation treated 1 hr before VEGF challenge measured 3 days by WST-8 assay. The following applies: Homo sapiens. The class given is functional, cell-based.

As for `Clc1ccc(Nc2nnc(Cc3ccncc3)c3ccccc23)cc1` [VATALANIB], inhibition was half-maximal at 33 nM (IC50).
